Target: T1, SAE (Homo sapiens, UniProt Q9UBT2)
T1 construct: endogenous in cells; host or cells: HCT116
T1 sequence (Q9UBT2 1-640): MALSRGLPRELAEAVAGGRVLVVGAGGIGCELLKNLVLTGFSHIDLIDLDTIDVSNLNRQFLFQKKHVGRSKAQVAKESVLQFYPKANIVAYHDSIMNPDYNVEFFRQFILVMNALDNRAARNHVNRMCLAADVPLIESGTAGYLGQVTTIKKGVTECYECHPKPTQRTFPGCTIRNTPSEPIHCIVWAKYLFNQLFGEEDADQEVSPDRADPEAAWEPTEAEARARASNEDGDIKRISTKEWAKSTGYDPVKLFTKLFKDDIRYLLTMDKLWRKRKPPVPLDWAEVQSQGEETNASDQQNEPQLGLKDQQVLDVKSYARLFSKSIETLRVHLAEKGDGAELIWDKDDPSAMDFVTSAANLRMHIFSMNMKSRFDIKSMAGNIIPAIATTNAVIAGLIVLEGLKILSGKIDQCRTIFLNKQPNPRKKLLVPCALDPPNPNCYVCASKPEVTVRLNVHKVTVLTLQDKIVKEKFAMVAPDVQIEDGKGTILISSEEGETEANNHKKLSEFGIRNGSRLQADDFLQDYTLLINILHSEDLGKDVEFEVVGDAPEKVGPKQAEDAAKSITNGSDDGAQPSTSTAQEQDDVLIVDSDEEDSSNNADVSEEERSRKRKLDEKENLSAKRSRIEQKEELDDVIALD
T1 sequence (Q9UBE0 1-346): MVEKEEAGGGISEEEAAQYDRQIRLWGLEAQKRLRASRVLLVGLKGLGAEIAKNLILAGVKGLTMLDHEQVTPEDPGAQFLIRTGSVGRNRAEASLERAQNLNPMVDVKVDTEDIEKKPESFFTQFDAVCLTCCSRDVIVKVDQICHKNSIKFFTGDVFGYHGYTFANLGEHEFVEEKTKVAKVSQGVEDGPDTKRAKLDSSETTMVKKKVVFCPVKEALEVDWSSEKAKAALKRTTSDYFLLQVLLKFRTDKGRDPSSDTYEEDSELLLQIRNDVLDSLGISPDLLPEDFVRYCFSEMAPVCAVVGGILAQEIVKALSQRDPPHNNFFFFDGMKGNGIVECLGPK
Assay: SUMO IF: in vitro inhibitory activity assay against SAE in HCT116 cells (SUMO-2/3 immunofluorescence)
Format: cell-based
Details: class symbols, 6 h at 37° C.
Method: Biological Example 1. In Vitro Inhibitory Activity Assay of Compounds of the Present Disclosure Against SAE
HCT116 cells were seeded into a 96-well black transparent bottom plate at about 20000/well with 90 μL per well. The cells were incubated at 37° C. overnight for 24 h. The test compounds were 10-fold diluted to give a final concentration, and 10 μL of the diluted compounds was added to each well of the cell culture plate. The mixture was incubated at 37° C. for 6 h. The cells were then washed gently, the culture medium was discarded, and the cells were washed once with 200 μL of 0.1% PBST. 50 μL of 4% PFA was added to each well, and the cells were immobilized at room temperature for 20 min, and then washed with PBS 2-3 times. 50 μL of 0.2% Triton X-100 was added to each well, and the cells were left to stand at room temperature for 15 min and washed with 0.1% PBST 3 times. 100 μL of 3% BSA (0.6 g BSA+20 mL PBS) was added to each well, and the mixture was blocked at 37° C. for 30 min. After the blocking was completed, the liquid was removed and a primary antibody (SUMO-2/3 (18H8) Rabbit mAb, 1:400 dilution) was prepared with 1% BSA. 30 μL of the diluted primary antibody was added to each well, and the mixture was incubated at 4° C. overnight. The cells were washed 3 times with 200 μL of 0.1% PBST. A FITC secondary antibody (Fluorescein (FITC)-conjugated Affinipure Goat Anti-Rabbit IgG (H+L), 1:300 dilution) was further prepared with 1% BSA, and 40 μL of the diluted secondary antibody was added to each well. The mixture was incubated at room temperature in the dark for 2 h, and then the cells were washed 4 times with 0.1% PBST. The fluorescence signal of the sample was detected and compared to the DMSO group, and the inhibition rate and IC50 were calculated.

Structure (SMILES) | IC50 [nM]
NS(=O)(=O)OC[C@H]1[C@H](F)[C@@H](Nc2ncncc2C(=O)c2cc3c(s2)CCCC32NCCc3ccccc32)C[C@@H]1O (stereo partly shown) [Compound 85] | 50 to 200
NS(=O)(=O)OC[C@H]1[C@H](F)[C@@H](Nc2ncncc2C(=O)c2cc3c(s2)CCC[C@@]32NCCc3ccccc32)C[C@@H]1O [Compound 86] | > 200
NS(=O)(=O)OC[C@H]1[C@H](F)[C@@H](Nc2ncncc2C(=O)c2cc3c(s2)CCC[C@]32NCCc3ccccc32)C[C@@H]1O [Compound 87] | ≤ 50
NS(=O)(=O)OC[C@H]1[C@H](F)[C@@H](Nc2ncncc2C(=O)c2cc3c(s2)CCCC32NCCc3ccc(Cl)cc32)C[C@@H]1O (stereo partly shown) [Compound 88] | ≤ 50
NS(=O)(=O)OC[C@H]1[C@H](F)[C@@H](Nc2ncncc2C(=O)c2cc3c(s2)CCCC32NCCc3ccc(F)cc32)C[C@@H]1O (stereo partly shown) [Compound 91] | 50 to 200
N#Cc1ccc2c(c1)C1(CCCc3sc(C(=O)c4cncnc4N[C@H]4C[C@H](O)[C@@H](COS(N)(=O)=O)[C@@H]4F)cc31)NCC2 (stereo partly shown) [Compound 94] | 50 to 200
N#Cc1ccc2c(c1)[C@]1(CCCc3sc(C(=O)c4cncnc4N[C@H]4C[C@H](O)[C@@H](COS(N)(=O)=O)[C@@H]4F)cc31)NCC2 [Compound 95] | > 200
N#Cc1ccc2c(c1)[C@@]1(CCCc3sc(C(=O)c4cncnc4N[C@H]4C[C@H](O)[C@@H](COS(N)(=O)=O)[C@@H]4F)cc31)NCC2 [Compound 96] | ≤ 50
NS(=O)(=O)OC[C@H]1[C@H](F)[C@@H](Nc2ncncc2C(=O)c2cc3c(s2)COCC32NCCc3ccccc32)C[C@@H]1O (stereo partly shown) [Compound 97] | > 200
NS(=O)(=O)OC[C@H]1[C@H](F)[C@@H](Nc2ncncc2C(=O)c2cc3c(s2)COC[C@@]32NCCc3ccccc32)C[C@@H]1O [Compound 98] | > 200
NS(=O)(=O)OC[C@H]1[C@H](F)[C@@H](Nc2ncncc2C(=O)c2cc3c(s2)COC[C@]32NCCc3ccccc32)C[C@@H]1O [Compound 99] | 50 to 200
NS(=O)(=O)OC[C@H]1[C@H](F)[C@@H](Nc2ncncc2C(=O)c2cc3c(s2)COCC32NCCc3ccc(F)cc32)C[C@@H]1O (stereo partly shown) [Compound 100] | 50 to 200
NS(=O)(=O)OC[C@H]1[C@H](F)[C@@H](Nc2ncncc2C(=O)c2cc3c(s2)COC[C@@]32NCCc3ccc(F)cc32)C[C@@H]1O [Compound 101] | > 200
NS(=O)(=O)OC[C@H]1[C@H](F)[C@@H](Nc2ncncc2C(=O)c2cc3c(s2)COC[C@]32NCCc3ccc(F)cc32)C[C@@H]1O [Compound 102] | 50 to 200
NS(=O)(=O)OC[C@H]1[C@H](F)[C@@H](Nc2ncncc2C(=O)c2cc3c(s2)COCC32NCCc3ccc(Cl)cc32)C[C@@H]1O (stereo partly shown) [Compound 103] | 50 to 200
Cc1ccc2c(c1)C1(CCCc3sc(C(=O)c4cncnc4N[C@H]4C[C@H](O)[C@@H](COS(N)(=O)=O)[C@@H]4F)cc31)NCC2 (stereo partly shown) [Compound 106] | 50 to 200
NS(=O)(=O)OC[C@H]1[C@H](F)[C@@H](Nc2ncncc2C(=O)c2cc3c(s2)CCCC32NCCc3ccc(C4CC4)cc32)C[C@@H]1O (stereo partly shown) [Compound 107] | 50 to 200
COc1ccc2c(c1)C1(CCCc3sc(C(=O)c4cncnc4N[C@H]4C[C@H](O)[C@@H](COS(N)(=O)=O)[C@@H]4F)cc31)NCC2 (stereo partly shown) [Compound 108] | > 200

Structure (SMILES) | IC50 [nM]
NS(=O)(=O)OC[C@H]1[C@H](F)[C@@H](Nc2ncncc2C(=O)c2cc3c(s2)CCCC32NCCc3ccc(C(F)(F)F)cc32)C[C@@H]1O (stereo partly shown) [Compound 109] | 50 to 200
NS(=O)(=O)OC[C@H]1[C@H](F)[C@@H](Nc2ncncc2C(=O)c2cc3c(s2)CCCC32NCCc3cc(F)c(F)cc32)C[C@@H]1O (stereo partly shown) [Compound 110] | 50 to 200
NS(=O)(=O)OC[C@H]1[C@H](F)[C@@H](Nc2ncncc2C(=O)c2cc3c(s2)CCCC32NCCc3cc(F)c(Cl)cc32)C[C@@H]1O (stereo partly shown) [Compound 111] | ≤ 50
NS(=O)(=O)OC[C@H]1[C@H](F)[C@@H](Nc2ncncc2C(=O)c2cc3c(s2)CCCC32NCCc3cc(Cl)c(Cl)cc32)C[C@@H]1O (stereo partly shown) [Compound 112] | 50 to 200
Cc1cc2c(cc1Cl)C1(CCCc3sc(C(=O)c4cncnc4N[C@H]4C[C@H](O)[C@@H](COS(N)(=O)=O)[C@@H]4F)cc31)NCC2 (stereo partly shown) [Compound 113] | 50 to 200
N#Cc1cc2c(cc1Cl)C1(CCCc3sc(C(=O)c4cncnc4N[C@H]4C[C@H](O)[C@@H](COS(N)(=O)=O)[C@@H]4F)cc31)NCC2 (stereo partly shown) [Compound 114] | 50 to 200
COc1cc2c(cc1Cl)C1(CCCc3sc(C(=O)c4cncnc4N[C@H]4C[C@H](O)[C@@H](COS(N)(=O)=O)[C@@H]4F)cc31)NCC2 (stereo partly shown) [Compound 115] | 50 to 200
NS(=O)(=O)OC[C@H]1[C@H](F)[C@@H](Nc2ncncc2C(=O)c2cc3c(s2)CCCC32NCCc3cc(F)c(Cl)c(F)c32)C[C@@H]1O (stereo partly shown) [Compound 116] | 50 to 200
NS(=O)(=O)OC[C@H]1[C@H](F)[C@@H](Nc2ncncc2C(=O)c2cc3c(s2)CCCC32NCCc3cc(Cl)c(F)cc32)C[C@@H]1O (stereo partly shown) [Compound 117] | 50 to 200
NS(=O)(=O)OC[C@H]1[C@H](F)[C@@H](Nc2ncncc2C(=O)c2cc3c(s2)CCCC32NCCc3ccncc32)C[C@@H]1O (stereo partly shown) [Compound 118] | 50 to 200
NS(=O)(=O)OC[C@H]1[C@H](F)[C@@H](Nc2ncncc2C(=O)c2cc3c(s2)CCCC32NCCc3cc(Cl)ncc32)C[C@@H]1O (stereo partly shown) [Compound 119] | 50 to 200
NS(=O)(=O)OC[C@H]1[C@H](F)[C@@H](Nc2ncncc2C(=O)c2cc3c(s2)C=CCC32NCCc3ccc(Cl)cc32)C[C@@H]1O (stereo partly shown) [Compound 120] | ≤ 50
NS(=O)(=O)OC[C@H]1[C@H](F)[C@@H](Nc2ncncc2C(=O)c2cc3c(s2)CC=CC32NCCc3ccc(Cl)cc32)C[C@@H]1O (stereo partly shown) [Compound 121] | ≤ 50
NS(=O)(=O)OC[C@H]1[C@H](F)[C@@H](Nc2ncncc2C(=O)c2cc3c(s2)OCCC32NCCc3ccc(Cl)cc32)C[C@@H]1O (stereo partly shown) [Compound 122] | 50 to 200
NS(=O)(=O)OC[C@H]1[C@H](F)[C@@H](Nc2ncncc2C(=O)c2cc3c(s2)CCCC32NCC3(CC3)c3ccc(Cl)cc32)C[C@@H]1O (stereo partly shown) [Compound 123] | 50 to 200
NS(=O)(=O)OC[C@H]1[C@H](F)[C@@H](Nc2ncncc2C(=O)c2cc3c(s2)CCCC32NC3(CC3)Cc3ccc(Cl)cc32)C[C@@H]1O (stereo partly shown) [Compound 124] | 50 to 200
NS(=O)(=O)OC[C@H]1[C@H](F)[C@@H](Nc2ncncc2C(=O)c2cc3c(s2)CCCC32NCC(=O)c3ccc(Cl)cc32)C[C@@H]1O (stereo partly shown) [Compound 125] | 50 to 200
NS(=O)(=O)OC[C@H]1[C@H](F)[C@@H](Nc2ncncc2C(=O)c2cc3c(s2)CCCC32OCCc3ccc(Cl)cc32)C[C@@H]1O (stereo partly shown) [Compound 126] | ≤ 50

Same assay, conditions: numeric values, 6 h at 37° C.

Structure (SMILES) | IC50 [nM]
NS(=O)(=O)OC[C@H]1[C@H](F)[C@@H](Nc2ncncc2C(=O)c2cc3c(s2)CCC[C@@]32NCCc3ccc(Cl)cc32)C[C@@H]1O [Compound 89] | > 1000
NS(=O)(=O)OC[C@H]1[C@H](F)[C@@H](Nc2ncncc2C(=O)c2cc3c(s2)CCC[C@@]32NCCc3ccc(F)cc32)C[C@@H]1O [Compound 92] | > 1000
NS(=O)(=O)OC[C@H]1[C@H](F)[C@@H](Nc2ncncc2C(=O)c2cc3c(s2)COC[C@@]32NCCc3ccc(Cl)cc32)C[C@@H]1O [Compound 104] | > 1000
NS(=O)(=O)OC[C@H]1[C@H](F)[C@@H](Nc2ncncc2C(=O)c2cc3c(s2)COC[C@]32NCCc3ccc(Cl)cc32)C[C@@H]1O [Compound 105] | 79.3

Reference: patent publication US20260297109A1, “COMPOUNDS AS SUMO ACTIVATING ENZYME INHIBITORS” (WIGEN BIOMEDICINE TECHNOLOGY (SHANGHAI) CO., LTD., priority 2022, published 2026)
